From publication PMC11605291 (Frontiers in Pharmacology, 2024)

Experiment: Excretion of radioactivity in urine and feces (mass balance)
Assay type: in vivo, human
Procedure: Six subjects were admitted to the clinical research center 1 day prior to dosing, with random urine and fecal samples collected as blank excretion controls. After fasting overnight for at least 10 h, a blank blood sample was collected after a regular breakfast (449 kcal, with ∼35% energy from fat) on Day 1. […] It is noteworthy that the medication administration duration for each subject was strictly kept within 10 min. Scheduled collection of urine, feces, and blood samples, and safety monitoring proceeded until completion.
The excreta sample collection ceased when total radioactivity from excreta surpassed 80% of the administered dose, or less than 1% of the dose for two consecutive intervals. Blood sample collection ceased when the radioactivity of plasma at 2 consecutive time points was lower than 3 times the radioactivity at 0 h before administration. Based on the interim results, sample collection concluded earlier than initially planned.
Venous blood samples were collected within 0.5 h prior to administration and at 0.5, 1, 1.5, 2, 3, 4, 6, 8, 12, 24, 36, 48, 72, and 96 h after administration. About 8 mL of blood was collected at each time point in the anticoagulant collection tube containing K2-EDTA. The centrifuged plasma was used for non-radioactive and radioactive pharmacokinetic and biotransformation (metabolite) analyses. In addition, about 2 mL of venous blood was collected within 0.5 h before administration and at 1, 4, 8, 12, 24, and 48 h after administration for whole blood radioactivity analysis. Additional 10 mL of venous blood for each time point was collected at 1, 4, 8, 12, 24, and 48 h after administration, and the plasma was obtained by centrifugation for biotransformation (metabolites) analysis. Urine and fecal samples were collected until 144 h (4 subjects) or 192 h (2 subjects) after administration.
Radioactivity was measured using an oxidative combustion apparatus and liquid scintillation counter (LSC). After the whole blood sample was vortexed thoroughly, two portions (about 0.5 g each) were weighed into the combustion boat, and after complete combustion by oxidative combustion apparatus, [^14C]carbon dioxide generated from the combustion of the samples was captured by scintillation solution and measured by liquid scintillation counter. After plasma samples were fully vortexed, one portion (approximately 0.5 g) was weighed into a scintillation vial, mixed well with the scintillation solution, and measured using a liquid scintillation counter. When the radioactivity of the plasma sample after administration is below the LLOQ, additional samples can be added, up to a maximum of 1 g. After mixing the urine well, weighed one portion (about 1 g) into a scintillation bottle, then added scintillation solution to mix well, and use a liquid scintillation counter to measure the radioactivity. The feces were transferred to labelled containers with known empty weights and soaked in an appropriate amount of 50% aqueous isopropanol solution for about 2–4 h or for a certain period of time (e.g., overnight) at 1°C–9°C. Before homogenization, the solution was made up to a suitable dilution by the addition of an appropriate amount of 50% aqueous isopropanol, the total weight was weighed and recorded, and the homogenization was carried out using a tissue homogenizer. Two equal portions of the homogenate (approximately 0.3 g) were weighed into a combustion boat and fully combusted by an oxidative combustion apparatus, and the [^14C]carbon dioxide generated from the combustion of the samples was captured with a scintillation solution and measured using a liquid scintillation counter.
The combustion efficiency of the oxidative combustor was verified by performing a combustion recovery test using a^14C-containing standard solution of known radioactivity concentration prior to combustion of the sample. […]

C[C@H](Nc1ncnc(N)c1C#N)c1cc2ncc(Cl)n2nc1-c1ccccc1 [Amdizalisib]
Aefeces, % of dose (Total (mean ± SD), 6 subjects, feces 0–144/192 h): 62.08 % of dose | Aefeces, % of dose (Total (mean ± SD), 6 subjects, feces 0–144/192 h, listed as [^14C] Amdizalisib): 62.08 ± 3.00 % of dose | Aeurine, % of dose (Total (mean ± SD), 6 subjects, urine 0–144/192 h): 37.15 % of dose | Aeurine, % of dose (Total (mean ± SD), 6 subjects, urine 0–144/192 h, listed as [^14C] Amdizalisib): 37.15 ± 2.84 % of dose | Aetotal, % of dose (Total (mean ± SD), 6 subjects, urine and feces 0–144/192 h, listed as [^14C] Amdizalisib): 99.23 ± 0.30 % of dose | Aetotal, % of dose (Total (mean ± SD), 6 subjects, urine and feces 0–144/192 h, listed as [^14C]amdizalisib): 99.23 % of dose | time within which completely excreted (single oral dose of [14C]amdizalisib suspension): ≤ 168 h | Aefeces, % of dose (subject 1,001, feces 0–192 h): 58.49 % of dose | Aeurine, % of dose (subject 1,001, urine 0–192 h): 40.40 % of dose | Aetotal, % of dose (subject 1,001, urine and feces 0–192 h): 98.89 % of dose | Aefeces, % of dose (subject 1,002, feces 0–192 h): 63.33 % of dose | Aeurine, % of dose (subject 1,002, urine 0–192 h): 35.85 % of dose | Aetotal, % of dose (subject 1,002, urine and feces 0–192 h): 99.18 % of dose | Aefeces, % of dose (subject 1,003, feces 0–144 h): 64.48 % of dose | Aeurine, % of dose (subject 1,003, urine 0–144 h): 35.12 % of dose | Aetotal, % of dose (subject 1,003, urine and feces 0–144 h): 99.60 % of dose | Aefeces, % of dose (subject 1,004, feces 0–144 h): 58.70 % of dose | Aeurine, % of dose (subject 1,004, urine 0–144 h): 40.65 % of dose | Aetotal, % of dose (subject 1,004, urine and feces 0–144 h): 99.35 % of dose | Aefeces, % of dose (subject 1,005, feces 0–144 h): 61.77 % of dose | Aeurine, % of dose (subject 1,005, urine 0–144 h): 37.11 % of dose | Aetotal, % of dose (subject 1,005, urine and feces 0–144 h): 98.88 % of dose | Aefeces, % of dose (subject 1,006, feces 0–144 h): 65.73 % of dose | Aeurine, % of dose (subject 1,006, urine 0–144 h): 33.74 % of dose | Aetotal, % of dose (subject 1,006, urine and feces 0–144 h): 99.47 % of dose | average excretion of total radioactivity within 96 h after administration (urine plus feces): over 94 % of the administered dose | excretion within 96 h as share of the total excretion from 0 h to 192 h (urine plus feces): 94.74% | average excretion of total radioactivity within 96 h after administration (urine plus feces, listed as [^14C]amdizalisib): 94.01 % of the administered dose
